In patent US20110166121A1 (LG LIFE SCIENCES LTD., priority 2008, published 2011):

Assays:
[1] = test system: Human platelet aggregation caused by ADP; assay: Inhibition of ADP-induced platelet aggregation (Mimic-human PRP); assay type: cell-based; conditions: 20 μM ADP, human platelet concentrate diluted with PPP, absorption at 595 nm
Summary of the method: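 Human PRP diluted with PPP to 3–4×10^8 platelets/mL was preincubated 20 min at room temperature with compound (0.01–30 μM, DMSO), then stimulated with 20 μM ADP. Aggregation read as A595 increase at 3 min versus 0 and 20 μM ADP controls; Ki from sigmoidal non-linear regression.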

Human P2Y12 receptor = target: T1, Human P2Y12 receptor (Homo sapiens, UniProt Q9H244); assay: Human P2Y12 receptor cell membrane binding assay with [3H] 2-Mes-ADP; conditions: 1 nM [3H] 2-Mes-ADP, membranes of HEK cells expressing P2Y12 receptor; read-out: Binding activity (IC50)
T1 construct: expressed in transfected cells; host or cells: HEK cells
Summary of the method: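 Membranes from HEK cells expressing human P2Y12 were incubated with compound and 1 nM [3H]2-MeS-ADP for 1 h at room temperature. Bound radioactivity was collected by GF/B filtration.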

T1 sequence (Q9H244 whole entry): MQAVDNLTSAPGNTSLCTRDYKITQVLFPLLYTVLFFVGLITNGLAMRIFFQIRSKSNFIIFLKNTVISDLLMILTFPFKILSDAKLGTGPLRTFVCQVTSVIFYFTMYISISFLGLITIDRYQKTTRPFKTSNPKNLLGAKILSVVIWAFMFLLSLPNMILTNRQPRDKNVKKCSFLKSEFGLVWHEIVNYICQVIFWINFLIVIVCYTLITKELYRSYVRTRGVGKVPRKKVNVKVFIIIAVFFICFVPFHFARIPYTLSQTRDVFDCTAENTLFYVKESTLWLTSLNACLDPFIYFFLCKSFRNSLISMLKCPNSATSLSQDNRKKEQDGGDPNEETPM

SMILES | Ki [1] | IC50 (Human P2Y12 receptor)
CCCc1cc2c(N3CCn4c(nnc4C(F)(F)F)C3)nc(NCCO)nc2s1 [Example 1-10, 2-[6-Propyl-4-(3-trifluoromethyl-5,6-dihydro-8H-[1,2,4]triazolo[4,3-a]pyrazin-7-yl)-thieno[2,3-d]pyrimidin-2-ylamino]-ethanol] | 178 nM | 110 nM
CCCc1cc2c(N3CCn4c(nnc4C(F)(F)F)C3)nc(NCC3CCN(Cc4ccccc4)C3)nc2s1 (stereo not shown) [Example 1-11, (1-Benzyl-pyrrolidin-3-ylmethyl)-[6-propyl-4-(3-trifluoromethyl-5,6-dihydro-8H-[1,2,4]triazolo[4,3-a]pyrazin-7-yl)-thieno[2,3-d]pyrimidin-2-yl]-amine] | 1380 nM | 260 nM
CCCc1cc2c(N3CCn4c(nnc4C(F)(F)F)C3)nc(N3CCC(CN)C3)nc2s1 (stereo not shown) [Example 1-12, C-{1-[6-Propyl-4-(3-trifluoromethyl-5,6-dihydro-8H-[1,2,4]triazolo[4,3-a]pyrazin-7-yl)-thieno[2,3-d]pyrimidin-2-yl]-pyrrolidin-3-yl}-methylamine] | 226 nM | 84 nM
CCCc1cc2c(N3CCn4c(nnc4C(F)(F)F)C3)nc(N3CC[C@@H](N)C3)nc2s1 [Example 1-13, (R)-1-[6-Propyl-4-(3-trifluoromethyl-5,6-dihydro-8H-[1,2,4]triazolo[4,3-a]pyrazin-7-yl)-thieno[2,3-d]pyrimidin-2-yl]-pyrrolidin-3-ylamine] | 90 nM | 83 nM
CCCc1cc2c(N3CCn4c(nnc4C(F)(F)F)C3)nc(N3CC[C@H](N)C3)nc2s1 [Example 1-14, (S)-1-[6-Propyl-4-(3-trifluoromethyl-5,6-dihydro-8H-[1,2,4]triazolo[4,3-a]pyrazin-7-yl)-thieno[2,3-d]pyrimidin-2-yl]-pyrrolidin-3-ylamine] | 34 nM | 60 nM
CCCc1cc2c(N3CCn4c(nnc4C(F)(F)F)C3)nc(N3CCOCC3)nc2s1 [Example 1-15, 7-(2-Morpholin-4-yl-6-propyl-thieno[2,3-d]pyrimidin-4-yl)-3-trifluoromethyl-5,6,7,8-tetrahydro-[1,2,4]triazolo[4,3-a]pyrazine] | 95 nM | 62 nM
CCCc1cc2c(N3CCn4c(nnc4C(F)(F)F)C3)nc(N3CC[C@H](O)C3)nc2s1 [Example 1-16, (S)-1-[6-Propyl-4-(3-trifluoromethyl-5,6-dihydro-8H-[1,2,4]triazolo[4,3-a]pyrazin-7-yl)-thieno[2,3-d]pyrimidin-2-yl]-pyrrolidin-3-ol] | 45 nM | 36 nM
CCCc1cc2c(N3CCn4c(nnc4C(F)(F)F)C3)nc(N3CC[C@@H](O)C3)nc2s1 [Example 1-17, (R)-1-[6-Propyl-4-(3-trifluoromethyl-5,6-dihydro-8H-[1,2,4]triazolo[4,3-a]pyrazin-7-yl)-thieno[2,3-d]pyrimidin-2-yl]-pyrrolidin-3-ol] | 80 nM | 41 nM
CCCc1cc2c(N3CCn4c(nnc4C(F)(F)F)C3)nc(N3CCC(=O)C3)nc2s1 [Example 1-18, 1-[6-Propyl-4-(3-trifluoromethyl-5,6-dihydro-8H-[1,2,4]triazolo[4,3-a]pyrazin-7-yl)-thieno[2,3-d]pyrimidin-2-yl]-pyrrolidin-3-one] | 34 nM | 54 nM
CCCc1cc2c(N3CCn4c(nnc4C(F)(F)F)C3)nc(N3CCC(=NO)C3)nc2s1 [Example 1-19, 1-[6-Propyl-4-(3-trifluoromethyl-5,6-dihydro-8H-[1,2,4]triazolo[4,3-a]pyrazin-7-yl)-thieno[2,3-d]pyrimidin-2-yl]-pyrrolidin-3-one oxime] | 56 nM | 55 nM
CCCc1cc2c(N3CCn4c(nnc4C(F)(F)F)C3)nc(N3CCC(=NOC)C3)nc2s1 [Example 1-20, 1-[6-Propyl-4-(3-trifluoromethyl-5,6-dihydro-8H-[1,2,4]triazolo[4,3-a]pyrazin-7-yl)-thieno[2,3-d]pyrimidin-2-yl]-pyrrolidin-3-one O-methyloxime] | 190 nM | 163 nM
CCCc1cc2c(N3CCn4c(nnc4C(F)(F)F)C3)nc(N3CCC(=NOCc4ccccc4)C3)nc2s1 [Example 1-21, 1-[6-Propyl-4-(3-trifluoromethyl-5,6-dihydro-8H-[1,2,4]triazolo[4,3-a]pyrazin-7-yl)-thieno[2,3-d]pyrimidin-2-yl]-pyrrolidin-3-one O-benzyloxime] | 220 nM | 452 nM
CCCc1cc2c(N3CCn4c(nnc4C(F)(F)F)C3)nc(N3CC[C@H](OC(C)=O)C3)nc2s1 [Example 1-22, Acetic Acid (S)-1-[6-propyl-4-(3-trifluoromethyl-5,6-dihydro-8H-[1,2,4]triazolo[4,3-a]pyrazin-7-yl)-thieno[2,3-d]pyrimidin-2-yl]-pyrrolidin-3-yl ester] | 130 nM | 65 nM
CCCc1cc2c(N3CCn4c(nnc4C(F)(F)F)C3)nc(N3CC[C@@H](OC(C)=O)C3)nc2s1 [Example 1-23, Acetic Acid (R)-1-[6-propyl-4-(3-trifluoromethyl-5,6-dihydro-8H-[1,2,4]triazolo[4,3-a]pyrazin-7-yl)-thieno[2,3-d]pyrimidin-2-yl]-pyrrolidin-3-yl ester] | 94 nM | 90 nM
CCCc1cc2c(N3CCn4c(nnc4C(F)(F)F)C3)nc(N3CCC(OC)C3)nc2s1 (stereo not shown) [Example 1-24, 7-[2-(3-Methoxy-pyrrolidin-1-yl)-6-propyl-thieno[2,3-d]pyrimidin-4-yl]-3-trifluoromethyl-5,6,7,8-tetrahydro-[1,2,4]triazolo[4,3-a]pyrazine] | 88 nM | 54 nM
CCCc1cc2c(N3CCn4c(nnc4C(F)(F)F)C3)nc(N3CCN(C)C(=O)C3)nc2s1 [Example 1-25, 1-Methyl-4-[6-propyl-4-(3-trifluoromethyl-5,6-dihydro-8H-[1,2,4]triazolo[4,3-a]pyrazin-7-yl)-thieno[2,3-d]pyrimidin-2-yl]-piperazin-2-one] | 100 nM | 32 nM
CCCc1cc2c(N3CCn4c(nnc4C(F)(F)F)C3)nc(N3CCC(O)CC3)nc2s1 [Example 1-26, 1-[6-Propyl-4-(3-trifluoromethyl-5,6-dihydro-8H-[1,2,4]triazolo[4,3-a]pyrazin-7-yl)-thieno[2,3-d]pyrimidin-2-yl]-piperidin-4-ol] | 1200 nM | 60 nM
CCCc1cc2c(N3CCn4c(nnc4C(F)(F)F)C3)nc(N3CCCC(O)C3)nc2s1 (stereo not shown) [Example 1-27, 1-[6-Propyl-4-(3-trifluoromethyl-5,6-dihydro-8H-[1,2,4]triazolo[4,3-a]pyrazin-7-yl)-thieno[2,3-d]pyrimidin-2-yl]-piperidin-3-ol] | 72 nM | 56 nM
CCCc1cc2c(N3CCn4c(nnc4C(F)(F)F)C3)nc(N3CCCCC3CO)nc2s1 (stereo not shown) [Example 1-28, {1-[6-Propyl-4-(3-trifluoromethyl-5,6-dihydro-8H-[1,2,4]triazolo[4,3-a]pyrazin-7-yl)-thieno[2,3-d]pyrimidin-2-yl]-piperidin-2-yl}-methanol] | 176 nM | 40 nM
CCCc1cc2c(N3CCn4c(nnc4C(F)(F)F)C3)nc(N3CCCC(CO)C3)nc2s1 (stereo not shown) [Example 1-29, {1-[6-Propyl-4-(3-trifluoromethyl-5,6-dihydro-8H-[1,2,4]triazolo[4,3-a]pyrazin-7-yl)-thieno[2,3-d]pyrimidin-2-yl]-piperidin-3-yl}-methanol] | 60 nM | 50 nM
CCCc1cc2c(N3CCn4c(nnc4C(F)(F)F)C3)nc(N3CCCC3CO)nc2s1 (stereo not shown) [Example 1-30, {1-[6-Propyl-4-(3-trifluoromethyl-5,6-dihydro-8H-[1,2,4]triazolo[4,3-a]pyrazin-7-yl)-thieno[2,3-d]pyrimidin-2-yl]-pyrrolidin-2-yl}-methanol] | 90 nM | 66 nM
CCCc1cc2c(N3CCn4c(nnc4C(F)(F)F)C3)nc(NC3CCCC3)nc2s1 [Example 1-31, Cyclopentyl-[6-propyl-4-(3-trifluoromethyl-5,6-dihydro-8H-[1,2,4]triazolo[4,3-a]pyrazin-7-yl)-thieno[2,3-d]pyrimidin-2-yl]-amine] | 7600 nM | 110 nM
CCCc1cc2c(N3CCn4c(nnc4C(F)(F)F)C3)nc(NCc3ccccc3)nc2s1 [Example 1-32, Benzyl-[6-propyl-4-(3-trifluoromethyl-5,6-dihydro-8H-[1,2,4]triazolo[4,3-a]pyrazin-7-yl)-thieno[2,3-d]pyrimidin-2-yl]-amine] | > 4000 nM | 95 nM
CCCc1cc2c(N3CCn4c(nnc4C(F)(F)F)C3)nc(N[C@@H]3C[C@H](OCCO)[C@@H](O)[C@H]3O)nc2s1 [Example 1-33, (1S,2S,3S,5R)-3-(2-Hydroxy-ethoxy)-5-[6-propyl-4-(3-trifluoromethyl-5,6-dihydro-8H-[1,2,4]triazolo[4,3-a]pyrazin-7-yl)-thieno[2,3-d]pyrimidin-2-ylamino]-cyclopentane-1,2-diol] | 250 nM | 780 nM
CCCc1cc2c(N3CCn4c(nnc4C(F)(F)F)C3)nc(N(CCO)CCO)nc2s1 [Example 1-34, 2-{(2-Hydroxy-ethyl)-[6-propyl-4-(3-trifluoromethyl-5,6-dihydro-8H-[1,2,4]triazolo[4,3-a]pyrazin-7-yl)-thieno[2,3-d]pyrimidin-2-yl]-amino}-ethanol] | 81 nM | 143 nM
CCCc1cc2c(N3CCn4c(nnc4C(F)(F)F)C3)nc(N3CCOC(=O)C3)nc2s1 [Example 1-35, 4-[6-Propyl-4-(3-trifluoromethyl-5,6-dihydro-8H-[1,2,4]triazolo[4,3-a]pyrazin-7-yl)-thieno[2,3-d]pyrimidin-2-yl]-morpholin-2-one] | 54 nM | 135 nM
